Test results: patent US5043332A, “Novel 11β-substituted -19-nor-steriods” (priority 1981, dated 1991)

Assays:
[1] = target: T1, Gluocorticoid receptor of thymus of rats (Rattus norvegicus, UniProt P06536); assay: Glucocorticoid receptor binding (displacement of tritiated dexamethasone); conditions: for relative affinity of tieing (ARL), Glucocorticoid: second table
T1 construct: The thymus were removed and homogenized at 0° C; from tissue; host or cells: rat thymus, 105,000 g supernatant (adrenalectomized male Sprague-Dawley rats)
T1 sequence (P06536 1-795): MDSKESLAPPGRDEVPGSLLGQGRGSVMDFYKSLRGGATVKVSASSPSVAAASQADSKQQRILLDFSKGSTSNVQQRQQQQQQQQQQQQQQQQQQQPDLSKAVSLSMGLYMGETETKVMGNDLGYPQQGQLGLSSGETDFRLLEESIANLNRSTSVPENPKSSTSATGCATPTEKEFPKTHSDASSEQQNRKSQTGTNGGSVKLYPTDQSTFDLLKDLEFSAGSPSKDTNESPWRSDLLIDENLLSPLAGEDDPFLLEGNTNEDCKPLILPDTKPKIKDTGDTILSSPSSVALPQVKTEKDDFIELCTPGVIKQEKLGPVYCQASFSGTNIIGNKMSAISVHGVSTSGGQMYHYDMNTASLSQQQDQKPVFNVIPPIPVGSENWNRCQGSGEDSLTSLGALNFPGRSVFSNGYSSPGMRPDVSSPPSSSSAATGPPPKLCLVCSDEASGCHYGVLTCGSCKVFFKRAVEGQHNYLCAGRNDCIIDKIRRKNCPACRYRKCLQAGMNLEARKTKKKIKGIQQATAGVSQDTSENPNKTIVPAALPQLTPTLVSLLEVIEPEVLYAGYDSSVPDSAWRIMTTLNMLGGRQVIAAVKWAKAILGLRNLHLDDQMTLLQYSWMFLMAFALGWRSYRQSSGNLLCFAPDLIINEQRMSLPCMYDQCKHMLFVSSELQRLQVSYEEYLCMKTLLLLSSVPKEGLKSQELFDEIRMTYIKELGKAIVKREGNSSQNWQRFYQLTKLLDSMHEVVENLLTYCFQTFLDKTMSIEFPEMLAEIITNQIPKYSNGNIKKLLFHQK

[2] = target: T2, Estrogen receptor of uterus of mice (Mus musculus, UniProt P19785); assay: Estrogen receptor binding (displacement of tritiated estradiol); conditions: second table; incubation 2 H at 0° C.
T2 construct: the uterus were removed and homogenized at 0° C; from tissue; host or cells: mouse uterus, 105,000 g supernatant (immature females 18 to 21 days old)
T2 sequence (P19785 1-599): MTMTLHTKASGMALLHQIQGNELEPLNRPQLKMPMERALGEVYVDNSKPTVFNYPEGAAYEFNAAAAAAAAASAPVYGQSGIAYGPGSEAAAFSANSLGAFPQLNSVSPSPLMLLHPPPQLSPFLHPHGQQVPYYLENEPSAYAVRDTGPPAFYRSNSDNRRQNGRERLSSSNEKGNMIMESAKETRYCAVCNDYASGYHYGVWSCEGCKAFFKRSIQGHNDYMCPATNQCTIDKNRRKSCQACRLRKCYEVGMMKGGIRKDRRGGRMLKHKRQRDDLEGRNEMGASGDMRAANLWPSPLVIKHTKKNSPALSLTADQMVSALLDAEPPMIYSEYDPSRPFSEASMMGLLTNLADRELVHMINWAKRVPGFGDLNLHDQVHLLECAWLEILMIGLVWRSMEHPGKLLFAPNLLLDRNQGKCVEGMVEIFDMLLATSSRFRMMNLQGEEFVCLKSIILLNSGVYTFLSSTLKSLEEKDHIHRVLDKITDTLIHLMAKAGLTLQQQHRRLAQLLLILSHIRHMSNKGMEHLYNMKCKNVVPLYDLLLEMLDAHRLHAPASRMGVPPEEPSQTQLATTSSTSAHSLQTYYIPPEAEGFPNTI
In short: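 Uteri from immature female mice aged 18 to 21 days were homogenized at 0° C. in Tris-saccharose buffer (pH 7.4, 1 g tissue per 25 ml) and ultracentrifuged at 105,000 g for 90 minutes. Aliquots were incubated at 0° C. with a fixed concentration of tritiated estradiol and increasing concentrations (0 to 1000×10^-9 M) of cold estradiol or test compound. Bound tritiated estradiol was measured by carbon-dextran adsorption, and relative binding affinity (ARL) was derived from the concentrations giving 50% inhibition.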

[3] = test system: thymocytes of surrenalectomized rats; assay: Antiglucocorticoidal activity, incorporation of tritiated uridine in thymocytes; assay type: cell-based; conditions: for opposition to the effect of dexamethasone on tritiated uridine incorporation (in words): with 5×10^-8 M dexamethasone

Compound	relative affinity of tieing (ARL), Glucocorticoid ([1]; incubation 4 H at 0° C.)	relative affinity of tieing (ARL), Glucocorticoid ([1]; incubation 24 H at 0° C.)	relative affinity of tieing (ARL), Estrogen [2]	inhibition at 1 µM ([3]; Rattus norvegicus, Thymocyte, second table, 5 × 10^-8 M dexamethasone + test product 10^-6 M, read-out: % of inhibition of effect of Dexamethasone)	inhibition at 0.1 µM ([3]; Rattus norvegicus, Thymocyte, second table, 5 × 10^-8 M dexamethasone + test product 10^-7 M, read-out: % of inhibition of effect of Dexamethasone)	inhibition at 0.01 µM ([3]; Rattus norvegicus, Thymocyte, second table, 5 × 10^-8 M dexamethasone + test product 10^-8 M, read-out: % of inhibition of effect of Dexamethasone)	opposition to the effect of dexamethasone on tritiated uridine incorporation (in words) [3]	affinity for glucocorticoid receptors (in words) ([1]; conclusion)	% of inhibition of effect of Dexamethasone (symbol) ([3]; second table, 5 × 10^-8 M dexamethasone + test product 10^-6 M)
CC#C[C@]1(O)CC[C@H]2[C@@H]3CCC4=CC(=O)CCC4=C3[C@@H](c3ccc([N+](C)(C)[O-])cc3)C[C@@]21C [Example 35, N-oxide of 11β-[4-(N,N-dimethylamino)-phenyl]-17α-(prop-1-ynyl)-Δ^4,9-estradiene-17β-ol-3-one]	7,8	5	0	50%	21%	4%	opposed this effect	–	–
C=CC[C@]1(O)CC[C@H]2[C@@H]3CCC4=CC(=O)CCC4=C3[C@@H](c3ccc(N(C)C)cc3)C[C@@]21C [Example 37, 11β-[4-(N,N-dimethylamino)-phenyl]-17α-(prop-2-enyl)-Δ^4,9-estradien-17β-ol-3-one]	178	221	0	–	–	–	opposed this effect	very remarkable affinity	* (A dose of 10^-6 M inhibited totally the effect of dexamethasone)
